Where a name gives a salt, the structure may show the parent alone.
What was measured:
Format in all cases: physicochemical
[1] = Chemical stability on storage: HPLC Assay and Impurities and Degradation Determination (IDD); details: for Chemical: Assay: HPLC; for Chemical: main deg: HPLC IDD
Protocol: The term “chemical stability” as used herein relates to the presence or absence of degradation products of the active pharmaceutical ingredient (API) as measure over time. Chemical stability is measured as the Assay of the material and/or the level of degradants. Stability is defined as having an Assay of at least about 90%, as determined by an HPLC assay method and/or having a minimum level of degradants, as determined by an HPLC Impurities and Degradation Determination (IDD) method over time. Preferably, a chemically stable composition as in the present inventor has an assay of at least 95%, more preferably at least 98%, as determined by an HPLC assay over time (storage time).
The stability of the examples described herein were tested using various analytical methods. One analytic method used is a determination using HPLC. The following HPLC method was used for the examples described below where HPLC was used as an analytic method.
(§1) The table below summarizes all test results (Assay, IDD, weight gain, and appearance). The appearance data is scored from 1 to 5 (1=very good (no change in color and texture of the sample), see an example of “Score=1” in Table 2, example 10, Day 0, 5=not good (changed both in color (became yellow) and in texture (absorbed water and reduced shine of sample)), see an example of “Score=4-5” in Table 2, example 9, time Day 5), and is supported by pictures presented in Table 2.

[2] = Physical stability on storage: appearance score (color and texture); design: key to Appearance, scale: 1 = good 5 = bad / Appearance / Appearance t = 7 days / Appearance t = 14 days: 1=very good (no change in color and texture of the sample); 5=not good (changed both in color (became yellow) and in texture (absorbed water and reduced shine of sample)); details: for Appearance, scale: 1 = good 5 = bad: 55° C./75% RH Day 0; for Appearance: 55° C./75% RH Day 5; for Appearance t = 7 days / Appearance t = 14 days / Appearance t = 28 days: 40° C./75% RH
Text: As used herein the term “physical stability” of a composition means the appearance of the composition is substantially unchanged and/or the hygroscopicity is low.
The term “appearance” as used herein describes the color and texture of a composition. The color of a composition according to a scored scale, as assessed by one of ordinary skill in the art in view of the following guidelines. A discoloration score of 1 indicates material without discoloration, whereas a discoloration score of 5 indicates severe discoloration (almost complete discoloration) relative to the color of the material as obtained after preparation and prior to storage. In the present invention the composition preferably has a white color immediately after processing and generally remains white if stable. Discoloration to a yellow color is typical when the composition is unstable. Similarly, a texture score of 1 indicates material having an uniform and smooth texture, whereas a texture score of 5 indicates a nonuniform and rough texture. The texture may be determined by visual inspection by one of ordinary skill in the art. For both discoloration and texture, scores 2 to 4 represent 5 “some or slight (change)” for a score of 2, “medium (change)” for a score of 3, and “substantial (change)” for a score of 4.
as §1

[3] = Physical form of the active drug in the sample; details: 55° C./75% RH Day 0
[4] = Hygroscopicity of imatinib depending on the physical structure of the active drug
[5] = Gain of weight (moisture uptake) on storage at 40° C./75% RH
Text: Texture is often highly correlated with hygroscopicity. Water/moisture absorption tends to reduce shine, for example. Water hygroscopicity can be determined by weight gain analyses.
Embodiments of the invention are preferably packaged with a desiccant, such as silica. The container preferably has a high moisture barrier, examples of which are known in the art. In a preferred packaged pharmaceutical composition of the present invention an amount of desiccant which will assure a weight gain due to moisture of not more than (NMT) 5%, preferably 0.5%, more preferably 0.05%, is preferred in order to maintain a good appearance and low water absorption for a maximum period of time. For example, the weight gain of the packaged material of the present invention after storage (i) at a temperature of about 55° C. and about 75% relative humidity for 5 days, and/or (ii) at a temperature of about 40° C. and about 75% relative humidity for 30 days, is less than about 15%, preferably less than about 10%, more preferably less than about 5% by weight.

Row | Chemical: Assay ([1]; 55° C./75% RH Day 0) | Chemical: main deg ([1]; 55° C./75% RH Day 0) | Chemical: Assay ([1]; 55° C./75% RH Day 5) | Chemical: main deg ([1]; 55° C./75% RH Day 5) | Appearance, scale: 1 = good 5 = bad [2] | Appearance [2] | Physical [3] | hygroscopicity compared to crystalline material [4] | Wt gain T = 7 days [5] [%] | Wt gain T = 14 days [5] [%] | Wt gain T = 28 days [5] [%] | Appearance t = 7 days [2] | Appearance t = 14 days [2] | Appearance t = 28 days [2] | Structure (SMILES)
1 | 88.6 | 0.46 | 97.8 | 0.44 | 1 | 5 | amrph | much more hygroscopic |  |  |  |  |  |  | Cc1ccc(NC(=O)c2ccc(CN3CCN(C)CC3)cc2)cc1Nc1nccc(-c2cccnc2)n1 [Active drug (Amorphous), imatinib mesylate]
2 | 97.5 | 0.12 | 98.8 | 0.12 | 1 | 1 | Alpha |  |  |  |  |  |  |  | Cc1ccc(NC(=O)c2ccc(CN3CCN(C)CC3)cc2)cc1Nc1nccc(-c2cccnc2)n1 [Active drug (Crystalline 1), imatinib mesylate]
3 |  |  |  |  |  |  |  |  | 12.42 | 7.79 | 8.86 | 1 | 1 | 2 | Cc1ccc(NC(=O)c2ccc(CN3CCN(C)CC3)cc2)cc1Nc1nccc(-c2cccnc2)n1 [Active drug (Crystalline 2) Packed with silica] [imatinib mesylate]
4 | 94.5 | 0.11 | 98.8 | 0.13 | 1 | 4 |  |  | 21.49 | 17.75 | 18.3 | 1 | 1-2 | 3 | Cc1ccc(NC(=O)c2ccc(CN3CCN(C)CC3)cc2)cc1Nc1nccc(-c2cccnc2)n1 [Active drug (Crystalline 2), imatinib mesylate]

— patent US20090324718A1, “IMATINIB COMPOSITIONS” (priority 2006, published 2009)
